Among the data in patent US10111874B2, “Combination therapies for treatment of cancer” (Araxes Pharma LLC, priority 2014, dated 2018) are Binding % values, retold here.

T1 sequence (P01116 1-169 isoform P01116-2 G12C): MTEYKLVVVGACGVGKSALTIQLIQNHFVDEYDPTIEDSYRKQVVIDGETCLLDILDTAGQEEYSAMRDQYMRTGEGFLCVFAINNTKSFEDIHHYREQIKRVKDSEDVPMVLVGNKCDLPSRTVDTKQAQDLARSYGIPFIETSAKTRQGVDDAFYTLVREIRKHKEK

The assay concerns the target T1, KRAS G12C 1-169, his-tagged protein, GDP-loaded (Homo sapiens, UniProt P01116, G12C).
T1 construct: KRAS G12C 1-169, his-tagged protein, GDP-loaded
Description: Biochemical assay: covalent binding to KRAS G12C analyzed by mass spectrometry. Also: test concentration or dose not given here. Particulars: compounds 48-246, measured at 2 h.
As for `C=CC(=O)N1CCN(c2ncnc3cc(-c4ccccc4-c4cn[nH]c4)c(Cl)cc23)CC1` [Compound I-183, 1-(4-(7-(2-(1H-pyrazol-4-yl)phenyl)-6-chloroquinazolin-4-yl)piperazin-1-yl)prop-2-en-1-one], the Binding % entry is “+++ (+++indicates binding activity greater than 50% and up to 75%)”. With `C=CC(=O)N1CCN(c2c(C#N)cnc3cc(-c4cc(O)ccc4Cl)c(Cl)cc23)CC1` [Compound I-184, 4-(4-acryloylpiperazin-1-yl)-6-chloro-7-(2-chloro-5-hydroxyphenyl)quinoline-3-carbonitrile], the Binding % result is “++++ (++++indicates binding activity greater than 75%)”. As for `C=CC(=O)N1CCN(c2ncnc3cc(-c4cccs4)c(Cl)cc23)CC1` [Compound I-185, 1-(4-(6-chloro-7-(thiophen-2-yl)quinazolin-4-yl)piperazin-1-yl)prop-2-en-1-one], the entry is “++ (++indicates binding activity greater than 25% and up to 50%)”; as for `C=CC(=O)N1CCN(c2ncnc3cc(-c4ccccc4-c4nccs4)c(Cl)cc23)CC1` [Compound I-186, 1-(4-(6-chloro-7-(2-(thiazol-2-yl)phenyl)quinazolin-4-yl)piperazin-1-yl)prop-2-en-1-one], “+++ (+++indicates binding activity greater than 50% and up to 75%)”; as for `C=CC(=O)N1CCN(c2ncnc3cc(-c4ccccc4-c4cncs4)c(Cl)cc23)CC1` [Compound I-187, 1-(4-(6-chloro-7-(2-(thiazol-5-yl)phenyl)quinazolin-4-yl)piperazin-1-yl)prop-2-en-1-one], “+++ (+++indicates binding activity greater than 50% and up to 75%)”. For the compound `C=CC(=O)N1CCN(c2ncnc3cc(-c4cc(-c5cn[nH]c5)ccc4F)c(Cl)cc23)CC1` [Compound I-188, 1-(4-(6-chloro-7-(2-fluoro-5-(1H-pyrazol-4-yl)phenyl)quinazolin-4-yl)piperazin-1-yl)prop-2-en-1-one], the Binding % result is “+++ (+++indicates binding activity greater than 50% and up to 75%)”. On to `C=CC(=O)N1CCN(C2=c3cc(Cl)c(-c4ccccc4F)cc3=NCN2C(N)=O)CC1` [Compound I-189, 4-(4-acryloylpiperazin-1-yl)-6-chloro-7-(2-fluorophenyl)quinazolin-3-carboxamide], for which the Binding % entry was “++ (++indicates binding activity greater than 25% and up to 50%)”. For `C=CC(=O)N1CCN(c2ncnc3cc(-c4cnc(N)nc4C)c(Cl)cc23)CC1` [Compound I-190, 1-(4-(7-(2-amino-4-methylpyrimidin-5-yl)-6-chloroquinazolin-4-yl)piperazin-1-yl)prop-2-en-1-one], the Binding % result is given as “+ (+indicates binding activity from 5% to 25%)”. Take `C=CC(=O)N1CCN(c2ncnc3cc(-c4cc(NC)ccc4C)c(Cl)cc23)CC1` [Compound I-191, 1-(4-(6-chloro-7-(2-methyl-5-(methylamino)phenyl)quinazolin-4-yl)piperazin-1-yl)prop-2-en-1-one]: the Binding % result was “+++ (+++indicates binding activity greater than 50% and up to 75%)”.

As for `C=CC(=O)N1CCN(c2ncnc3cc(-c4c(F)cccc4C#N)c(Cl)cc23)CC1` [Compound I-192, 2-(4-(4-acryloylpiperazin-1-yl)-6-chloroquinazolin-7-yl)-3-fluorobenzonitrile], the Binding % result is “++ (++indicates binding activity greater than 25% and up to 50%)”. Turning to `C=CC(=O)N1CCN(c2ncnc3cc(-c4ccc(F)cc4C(N)=O)c(Cl)cc23)CC1` [Compound I-193, 2-(4-(4-acryloylpiperazin-1-yl)-6-chloroquinazolin-7-yl)-5-fluorobenzamide], the Binding % entry was “++ (++indicates binding activity greater than 25% and up to 50%)”. `C=CC(=O)N1CCN(c2ncnc3cc(-c4c(F)cccc4OC)c(Cl)cc23)CC1` [Compound I-194, 1-(4-(6-chloro-7-(2-fluoro-6-methoxyphenyl)quinazolin-4-yl)piperazin-1-yl)prop-2-en-1-one]: the Binding % result was “++++ (++++indicates binding activity greater than 75%)”. As for `C#CC1CN(c2ncnc3cc(-c4ccc(F)cc4F)c(Cl)cc23)CCN1C(=O)C=C` (stereo not drawn) [Compound I-195, 1-(4-(6-chloro-7-(2,4-difluorophenyl)quinazolin-4-yl)-2-ethynylpiperazin-1-yl)prop-2-en-1-one], the entry is “++++ (++++indicates binding activity greater than 75%)”; as for `C=CC(=O)N1CCN(c2c(C#N)cnc3cc(-c4cc(O)ccc4F)c(Cl)cc23)CC1` [Compound I-196, 4-(4-acryloylpiperazin-1-yl)-6-chloro-7-(2-fluoro-5-hydroxyphenyl)quinoline-3-carbonitrile], “++++ (++++indicates binding activity greater than 75%)”.

Turning to `C=CC(=O)N1CCN(c2ncnc3cc(-c4cc(F)ccc4C(N)=O)c(Cl)cc23)CC1` [Compound I-197, 2-(4-(4-acryloylpiperazin-1-yl)-6-chloroquinazolin-7-yl)-4-fluorobenzamide], the Binding % entry was “++ (++indicates binding activity greater than 25% and up to 50%)”.

For `C=CC(=O)N1CCN(c2ncnc3cc(-c4csc5ccccc45)c(Cl)cc23)CC1` [Compound I-198, 1-(4-(7-(benzo[d]thiophen-3-yl)-6-chloroquinazolin-4-yl)piperazin-1-yl)prop-2-en-1-one], the Binding % entry was “++++ (++++indicates binding activity greater than 75%)”. As for `C=CC(=O)N1CCN(c2ncnc3cc(-c4cccc5c4OC(F)(F)O5)c(Cl)cc23)CC1` [Compound I-200, 1-(4-(6-chloro-7-(2,2-difluorobenzo[d][1,3]dioxol-4-yl)quinazolin-4-yl)piperazin-1-yl)prop-2-en-1-one], the Binding % result is “++ (++indicates binding activity greater than 25% and up to 50%)”.

In the case of `C=CC(=O)N1CCN(c2ncnc3cc(-c4cccc5c4OCCO5)c(Cl)cc23)CC1` [Compound I-201, 1-(4-(6-chloro-7-(2,3-dihydrobenzo[d][1,4]dioxol-5-yl)quinazolin-4-yl)piperazin-1-yl)prop-2-en-1-one], the Binding % entry is “+++ (+++indicates binding activity greater than 50% and up to 75%)”.

For `C=CC(=O)N1CCN(c2ncnc3cc(-c4c(OC)ccc5ccccc45)c(Cl)cc23)CC1` [Compound I-202, 1-(4-(6-chloro-7-(2-methoxynaphthalen-1-yl)quinazolin-4-yl)piperazin-1-yl)prop-2-en-1-one], the Binding % result was “+++ (+++indicates binding activity greater than 50% and up to 75%)”. As for `C=CC(=O)N1CCN(c2ncnc3cc(-c4c(O)ccc(F)c4F)c(Cl)cc23)CC1` [Compound I-203, 1-(4-(6-chloro-7-(2,3-difluoro-6-hydroxyphenyl)quinazolin-4-yl)piperazin-1-yl)prop-2-en-1-one], the Binding % result is on record as “++++ (++++indicates binding activity greater than 75%)”. Regarding `C=CC(=O)N1CCN(c2ncnc3cc(-c4ccc(F)cc4F)c(C(F)(F)F)cc23)CC1` [Compound I-204, 1-(4-(7-(2,4-difluorophenyl)-6-(trifluoromethyl)quinazolin-4-yl)piperazin-1-yl)prop-2-en-1-one], the Binding % entry is “+++ (+++indicates binding activity greater than 50% and up to 75%)”. To `C=CC(=O)N1CCN(c2ncnc3cc(-c4cccc5c4CCC(=O)N5)c(Cl)cc23)CC1` [Compound I-205, 5-(4-(4-acryloylpiperazin-1-yl)-6-chloroquinazolin-7-yl)-3,4-dihydroquinolin-2(1H)-one] belongs “+ (+indicates binding activity from 5% to 25%)”; to `C=CC(=O)N1CCN(c2ncnc3cc(-c4cc(O)c(F)cc4F)c(Cl)cc23)CC1` [Compound I-206, 1-(4-(6-chloro-7-(2,4-difluoro-5-hydroxyphenyl)quinazolin-4-yl)piperazin-1-yl)prop-2-en-1-one], “++++ (++++indicates binding activity greater than 75%)”.

Regarding `C=CC(=O)N1CCN(c2ncnc3cc(-c4cc(O)ccc4Cl)c(C(F)(F)F)cc23)CC1` [Compound I-207, 1-(4-(7-(2-chloro-5-hydroxyphenyl)-6-(trifluoromethyl)quinazolin-4-yl)piperazin-1-yl)prop-2-en-1-one], the Binding % result is given as “++++ (++++indicates binding activity greater than 75%)”.

For `C=CC(=O)N1CCN(c2ncnc3cc(-c4c(O)cccc4F)c(C(F)(F)F)cc23)CC1` [Compound I-208, 1-(4-(7-(2-fluoro-6-hydroxyphenyl)-6-(trifluoromethyl)quinazolin-4-yl)piperazin-1-yl)prop-2-en-1-one], the Binding % entry is recorded as “++++ (++++indicates binding activity greater than 75%)”. With `C=CC(=O)N1CCN(c2ncnc3c(F)c(-c4ccccc4C(F)(F)F)c(Cl)cc23)CC1` [Compound I-209, 1-(4-(6-chloro-8-fluoro-7-(2-(trifluoromethyl)phenyl)quinazolin-4-yl)piperazin-1-yl)prop-2-en-1-one], the Binding % result is “++++ (++++indicates binding activity greater than 75%)”. To `C=CC(=O)N1CCN(c2ncnc3c(Cl)c(-c4ccccc4F)c(Cl)cc23)CC1` [Compound I-210, 1-(4-(6,8-dichloro-7-(2-fluorophenyl)quinazolin-4-yl)piperazin-1-yl)prop-2-en-1-one] belongs “++++ (++++indicates binding activity greater than 75%)”.

With `C=CC(=O)N1CCN(c2ncnc3cc(-c4ccccc4C(N)=O)c(C(F)(F)F)cc23)CC1` [Compound I-211, 2-(4-(4-acryloylpiperazin-1-yl)-6-(trifluoromethyl)quinazolin-7-yl)benzamide], the Binding % result is on record as “+ (+indicates binding activity from 5% to 25%)”. With `C=CC(=O)N1CCN(c2ncnc3cc(-c4ccccc4C(F)(F)F)c(C(F)(F)F)cc23)CC1` [Compound I-212, 1-(4-(6-(trifluoromethyl)-7-(2-(trifluoromethyl)phenyl)quinazolin-4-yl)piperazin-1-yl)prop-2-en-1-one], the Binding % entry is reported as “++++ (++++indicates binding activity greater than 75%)”. To `C=CC(=O)N1CCN(c2ncnc3cc(-c4ccccc4S(N)(=O)=O)c(Cl)cc23)CC1` [Compound I-213, 2-(4-(4-acryloylpiperaqzin-1-yl)-6-chloroquinazolin-7-yl)benzenesulfonamide] belongs “++ (++indicates binding activity greater than 25% and up to 50%)”.
